Measured values taken from US20090054629A1, “Inhibitors of Transthyretin Amyloid Fibril Formation” (THE SCRIPPS RESEARCH INSTITUTE, priority 2005, published 2009).

Molecular target: T1, WT-TTR (Homo sapiens, UniProt P02766)
T1 construct: TTR is a 127-residue β-sheet rich homotetramer; made in house; host or cells: Escherichia coli
Assay: Acid-mediated (pH 4.4) TTR fibril formation assay (turbidity)
Type: biochemical
Details: inhibitor 7.2 μM, tetrameric TTR 3.6 μM, pH 4.4, 72 h
Method: The inhibitory activity of the oxime ethers (7.2 μM) against acid-mediated (pH 4.4) TTR (3.6 μM) amyloid formation is summarized in FIG. 10.
Wild type TTR was purified from an Escherichia coli expression system as described previously (Lashuel, H. A.; et al. Biochemistry 1999, 38, 13560-13573). Disposable cuvettes (Fisher #14 385 938) were charged with 495 μL of a 0.4 mg/mL stock of TTR (7.2 μM) in 10 mM phosphate (pH 7.2), 100 mM KCl, 1 mM EDTA, and 0.2% NaN3. 5 μL of the inhibitors in DMSO (1.44 mM) were added to the TTR solutions and the samples were incubated for 30 min at 37° C. The pH was then lowered to 4.4 by addition of 0.5 mL of 200 mM acetate buffer (pH 4.2, 100 mM KCI, 1 mM EDTA, 0.2% NaN3) to each cuvette. The cuvettes were left undisturbed for 72 h at 37° C., then vortexed to evenly distribute any precipitate throughout the sample. The turbidity was measured on a Hewlett Packard model 8453 UV-Vis Spectrophotometer at 350 and 400, or 500 nm. All samples were performed in duplicate or triplicate and results reported are representative examples of at least three analyses.
FIG. 4 is a table showing the activities of the 96 bisarylhydrazones that were tested for inhibition of fibril formation. Bisarylhydrazone activity (7.2 μM) against WT-TTR (3.6 μM) amyloid fibril formation at pH 4.4 (72 h). […]

SMILES: Oc1cc(Cl)cc(Cl)c1 [3,5-Dichlorophenol]
- inhibition at 7.2 µM: 86%
